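96-well plates; 48 h exposure; 5 concentrations. Endpoints by linear interpolation between flanking doses. Not reached: highest tested concentration assigned. Here, GI50 denotes the concentration required for 50% inhibition of growth.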 The source made the active and inactive calls. Cut-off read from the data, not from the text of the source: active = GI50 up to about 1.1 µM and inactive = higher.
How the values were obtained:
Test in all cases: inhibition of tumour cell growth, NCI panel, 48 h
SK-MEL-2 = tested on: SK-MEL-2
A549 = tested on: A549
CAKI-1 = tested on: CAKI-1
M14 = tested on: M14
SF-295 = tested on: SF-295
OVCAR-3 = tested on: OVCAR-3
COLO 205 = tested on: COLO 205
SF-539 = tested on: SF-539
UO-31 = tested on: UO-31
OVCAR-5 = tested on: OVCAR-5
SN12C = tested on: SN12C
HT-29 = tested on: HT-29
LOX IMVI = tested on: LOX IMVI
RXF 393 = tested on: RXF 393
786-0 = tested on: 786-0
NCI-H23 = tested on: NCI-H23
T47D = tested on: T47D
NCI-H460 = tested on: NCI-H460
HOP-62 = tested on: HOP-62
SNB-19 = tested on: SNB-19
HCT-15 = tested on: HCT-15
KM12 = tested on: KM12
U-251 = tested on: U-251
UACC-62 = tested on: UACC-62
NCI-H522 = tested on: NCI-H522
HCT-116 = tested on: HCT-116
MDA-MB-435 = tested on: MDA-MB-435
NCI/ADR-RES = tested on: NCI/ADR-RES
MDA-MB-231 = tested on: MDA-MB-231
SK-OV-3 = tested on: SK-OV-3
EKVX = tested on: EKVX
CCRF-CEM = tested on: CCRF-CEM
SK-MEL-5 = tested on: SK-MEL-5
MDA-N = tested on: MDA-N
SR = tested on: SR
TK-10 = tested on: TK-10
SK-MEL-28 = tested on: SK-MEL-28
NCI-H226 = tested on: NCI-H226
ACHN = tested on: ACHN
HOP-92 = tested on: HOP-92
IGROV-1 = tested on: IGROV-1
Malme-3M = tested on: Malme-3M
A498 = tested on: A498
UACC-257 = tested on: UACC-257
RPMI-8226 = tested on: RPMI-8226
SF-268 = tested on: SF-268
SW-620 = tested on: SW-620
HL-60 = tested on: HL-60
OVCAR-8 = tested on: OVCAR-8
DU-145 = tested on: DU-145
K562 = tested on: K562
OVCAR-4 = tested on: OVCAR-4
Hs-578T = tested on: Hs-578T
BT-549 = tested on: BT-549
MOLT-4 = tested on: MOLT-4
PC-3 = tested on: PC-3
HCC 2998 = tested on: HCC 2998
MCF7 = tested on: MCF7
SNB-75 = tested on: SNB-75

In the case of `Cc1ccc(-n2cc(-c3ccc(Cl)cc3)c3c(N/N=C4\SCC(=O)N4C)ncnc32)cc1`, the GI50 (SK-MEL-2) is reported as 2.48 µM (inactive), the GI50 (A549) is reported as 4.72 µM (inactive) and the GI50 (CAKI-1) is reported as 4.23 µM (inactive). For the same molecule, the GI50 (M14) was 4.78 µM (inactive), the GI50 (SF-295) was 2.67 µM (inactive) and the GI50 (OVCAR-3) was 10.8 µM (inactive). For the same molecule, the GI50 (COLO 205) was 4.09 µM (inactive), the GI50 (SF-539) was 12 µM (inactive) and the GI50 (UO-31) was 46.3 µM (inactive). The GI50 (OVCAR-5) was 45.4 µM (inactive), the GI50 (SN12C) was 5.6 µM (inactive) and the GI50 (HT-29) was 12.3 µM (inactive). For the same molecule, the GI50 (LOX IMVI) was 5.64 µM (inactive), the GI50 (RXF 393) was 7.18 µM (inactive) and the GI50 (786-0) was 3.39 µM (inactive). The GI50 (NCI-H23) was 3.9 µM (inactive), the GI50 (T47D) was 91.4 µM (inactive) and the GI50 (NCI-H460) was 4.31 µM (inactive). For the same molecule, the GI50 (HOP-62) was 9.14 µM (inactive), the GI50 (SNB-19) was 9.59 µM (inactive) and the GI50 (HCT-15) was 59.3 µM. The GI50 (KM12) was 7.96 µM (inactive), the GI50 (U-251) was 6.71 µM (inactive) and the GI50 (UACC-62) was 3.44 µM (inactive). The GI50 (NCI-H522) was 5.27 µM (inactive), the GI50 (HCT-116) was 4.59 µM (inactive) and the GI50 (MDA-MB-435) was 4.23 µM (inactive). The GI50 (NCI/ADR-RES) was 6.65 µM (inactive), the GI50 (MDA-MB-231) was 4.99 µM (inactive) and the GI50 (SK-OV-3) was 2.54 µM (inactive). The GI50 (EKVX) was 18.3 µM (inactive), the GI50 (CCRF-CEM) was > 100 µM (inactive) and the GI50 (SK-MEL-5) was 3.81 µM (inactive). The GI50 (MDA-N) was 5.19 µM (inactive), the GI50 (SR) was 20.7 µM (inactive) and the GI50 (TK-10) was 2.64 µM (inactive). For the same molecule, the GI50 (SK-MEL-28) was 2.44 µM (inactive), the GI50 (NCI-H226) was 7.35 µM (inactive) and the GI50 (ACHN) was 7.36 µM (inactive). For the same molecule, the GI50 (HOP-92) was 2.62 µM (inactive), the GI50 (IGROV-1) was 14.8 µM (inactive) and the GI50 (Malme-3M) was 3.31 µM (inactive). For the same molecule, the GI50 (A498) was 11.5 µM (inactive), the GI50 (UACC-257) was 4.66 µM (inactive) and the GI50 (RPMI-8226) was 12.9 µM (inactive). For the same molecule, the GI50 (SF-268) was 7.05 µM (inactive), the GI50 (SW-620) was 16.3 µM (inactive) and the GI50 (HL-60) was > 100 µM (inactive). For the same molecule, the GI50 (OVCAR-8) was 5.09 µM (inactive), the GI50 (DU-145) was > 100 µM (inactive) and the GI50 (K562) was 5 µM (inactive). The GI50 (OVCAR-4) was 2.48 µM (inactive), the GI50 (Hs-578T) was 3.59 µM (inactive) and the GI50 (BT-549) was 15.6 µM (inactive). For the same molecule, the GI50 (MOLT-4) was 38.9 µM (inactive) and the GI50 (PC-3) was 2.72 µM (inactive).
With `CC(NC(=O)NC(C)(C)C)NC(=O)C(N)CC(=O)O` (configuration not stated) the GI50 (SK-MEL-2) was > 100 µM (inactive), the GI50 (A549) was > 100 µM (inactive) and the GI50 (CAKI-1) was > 100 µM (inactive). For the same molecule, the GI50 (M14) was > 100 µM (inactive), the GI50 (SF-295) was > 100 µM (inactive) and the GI50 (OVCAR-3) was > 100 µM (inactive). For the same molecule, the GI50 (COLO 205) was > 100 µM (inactive), the GI50 (SF-539) was > 100 µM (inactive) and the GI50 (UO-31) was > 100 µM (inactive). For the same molecule, the GI50 (OVCAR-5) was > 100 µM (inactive), the GI50 (SN12C) was > 100 µM (inactive) and the GI50 (HT-29) was > 100 µM (inactive). For the same molecule, the GI50 (LOX IMVI) was > 100 µM (inactive), the GI50 (RXF 393) was > 100 µM (inactive) and the GI50 (786-0) was > 100 µM (inactive). For the same molecule, the GI50 (NCI-H23) was > 100 µM (inactive), the GI50 (T47D) was > 100 µM (inactive) and the GI50 (NCI-H460) was > 100 µM (inactive). For the same molecule, the GI50 (HOP-62) was > 100 µM (inactive), the GI50 (SNB-19) was > 100 µM (inactive) and the GI50 (HCT-15) was > 100 µM. The GI50 (KM12) was > 100 µM (inactive), the GI50 (U-251) was > 100 µM (inactive) and the GI50 (UACC-62) was 14.4 µM (inactive). The GI50 (NCI-H522) was > 100 µM (inactive), the GI50 (HCT-116) was > 100 µM (inactive) and the GI50 (MDA-MB-435) was > 100 µM (inactive). For the same molecule, the GI50 (NCI/ADR-RES) was > 100 µM (inactive), the GI50 (MDA-MB-231) was > 100 µM (inactive) and the GI50 (SK-OV-3) was 15.8 µM (inactive). The GI50 (EKVX) was > 100 µM (inactive), the GI50 (HCC 2998) was > 10 µM (inactive) and the GI50 (CCRF-CEM) was > 100 µM (inactive). The GI50 (SK-MEL-5) was > 100 µM (inactive), the GI50 (MDA-N) was > 100 µM (inactive) and the GI50 (MCF7) was > 100 µM (inactive). For the same molecule, the GI50 (TK-10) was > 100 µM (inactive), the GI50 (SK-MEL-28) was > 100 µM (inactive) and the GI50 (NCI-H226) was > 100 µM (inactive). The GI50 (ACHN) was > 100 µM (inactive), the GI50 (HOP-92) was > 100 µM (inactive) and the GI50 (IGROV-1) was > 100 µM (inactive). The GI50 (Malme-3M) was > 100 µM (inactive), the GI50 (A498) was > 100 µM (inactive) and the GI50 (UACC-257) was > 100 µM (inactive). The GI50 (RPMI-8226) was > 100 µM (inactive), the GI50 (SF-268) was > 100 µM (inactive) and the GI50 (SW-620) was > 100 µM (inactive). The GI50 (OVCAR-8) was > 100 µM (inactive), the GI50 (DU-145) was > 100 µM (inactive) and the GI50 (K562) was > 100 µM (inactive). The GI50 (OVCAR-4) was > 100 µM (inactive), the GI50 (SNB-75) was > 100 µM (inactive) and the GI50 (Hs-578T) was > 100 µM (inactive). For the same molecule, the GI50 (BT-549) was > 100 µM (inactive), the GI50 (MOLT-4) was > 100 µM (inactive) and the GI50 (PC-3) was > 100 µM (inactive).
For `O=[N+]([O-])c1ncc(N(CCO)CCO)s1`, the GI50 (SK-MEL-2) was 21.6 µM (inactive), the GI50 (CAKI-1) was > 100 µM (inactive) and the GI50 (M14) was 34.8 µM (inactive). The GI50 (SF-295) was > 100 µM (inactive), the GI50 (OVCAR-3) was 65.6 µM (inactive) and the GI50 (COLO 205) was 21.9 µM (inactive). The GI50 (SF-539) was 14.4 µM (inactive), the GI50 (UO-31) was 43.1 µM (inactive) and the GI50 (OVCAR-5) was 78.5 µM (inactive). For the same molecule, the GI50 (SN12C) was 41.4 µM (inactive), the GI50 (HT-29) was 49.7 µM (inactive) and the GI50 (LOX IMVI) was 15.6 µM (inactive). For the same molecule, the GI50 (RXF 393) was 16.7 µM (inactive), the GI50 (786-0) was 34 µM (inactive) and the GI50 (NCI-H23) was 41 µM (inactive). The GI50 (T47D) was 27.5 µM (inactive), the GI50 (NCI-H460) was 61.2 µM (inactive) and the GI50 (HOP-62) was 42.9 µM (inactive). For the same molecule, the GI50 (SNB-19) was > 100 µM (inactive), the GI50 (HCT-15) was 33.3 µM and the GI50 (KM12) was > 100 µM (inactive). The GI50 (U-251) was 45.3 µM (inactive), the GI50 (UACC-62) was 19.8 µM (inactive) and the GI50 (NCI-H522) was 16.4 µM (inactive). The GI50 (HCT-116) was 37.1 µM (inactive), the GI50 (MDA-MB-435) was 34.8 µM (inactive) and the GI50 (MDA-MB-231) was 67.8 µM (inactive). For the same molecule, the GI50 (SK-OV-3) was > 100 µM (inactive), the GI50 (EKVX) was > 100 µM (inactive) and the GI50 (HCC 2998) was 47 µM (inactive). For the same molecule, the GI50 (CCRF-CEM) was 22.8 µM (inactive), the GI50 (MDA-N) was 30.3 µM (inactive) and the GI50 (MCF7) was 37 µM (inactive). The GI50 (SR) was 43.8 µM (inactive), the GI50 (TK-10) was 34.9 µM (inactive) and the GI50 (SK-MEL-28) was 16.4 µM (inactive). The GI50 (NCI-H226) was > 100 µM (inactive), the GI50 (ACHN) was 37.7 µM (inactive) and the GI50 (Malme-3M) was 18.2 µM (inactive). For the same molecule, the GI50 (A498) was 65.5 µM (inactive), the GI50 (UACC-257) was 25 µM (inactive) and the GI50 (RPMI-8226) was 19.5 µM (inactive). For the same molecule, the GI50 (SF-268) was 40.3 µM (inactive), the GI50 (SW-620) was 33.3 µM (inactive) and the GI50 (HL-60) was 17.7 µM (inactive). For the same molecule, the GI50 (OVCAR-8) was 53.5 µM (inactive), the GI50 (DU-145) was 65.9 µM (inactive) and the GI50 (K562) was 20.8 µM (inactive). The GI50 (OVCAR-4) was > 100 µM (inactive), the GI50 (SNB-75) was 30.8 µM (inactive) and the GI50 (Hs-578T) was 32.1 µM (inactive). For the same molecule, the GI50 (BT-549) was 26.5 µM (inactive), the GI50 (MOLT-4) was 36.6 µM (inactive) and the GI50 (PC-3) was 41.3 µM (inactive).
